These are literature values, as cited in patent US20220142892A1, “PROCESS FOR THE PREPARATION AND USE OF HAIR TREATMENT COMPOSITIONS CONTAINING ORGANIC C1-C6 ALKOXY SILANES” (Henkel AG & Co. KGaA, priority 2019, published 2022).

For this data set the following is noted: 25° C.

Turning to `O=C([O-])C1=NN(c2ccc(S(=O)(=O)[O-])cc2)C(=O)C1N=Nc1ccc(S(=O)(=O)[O-])cc1.[Na+].[Na+].[Na+]` (stereo not shown) [Acid Yellow 23, trisodium salt of 4,5-dihydro-5-oxo-1-(4-sulfophenyl)-4-((4-sulfophenyl)azo)-1H-pyrazole-3-carboxylic acid], the “solubility in water (in words)” value is “highly soluble”. As to `O=S(=O)([O-])c1ccc(N=Nc2c(O)ccc3ccccc23)cc1.[Na+]` [Acid Orange 7, sodium salt of 4-[(2-hydroxy-1-naphthyl)azo]benzene sulphonate], the solubility in water result is reported as “more than 7 g/L”. As to `O=C([O-])c1c(Cl)c(Cl)c(Cl)c(Cl)c1-c1c2c(Br)cc(=O)c(Br)c-2oc2c(Br)c(O)cc(Br)c12.O=C([O-])c1c(Cl)c(Cl)c(Cl)c(Cl)c1-c1c2c(Br)cc(=O)c(Br)c-2oc2c(Br)c(O)cc(Br)c12.[Na+].[Na+]` [Acid Red 92, disodium salt of 3,4,5,6-tetrachloro-2-(1,4,5,8-tetrabromo-6-hydroxy-3-oxoxanthen-9-yl)benzoic acid], the solubility in water result is “greater than 10 g/L”. On to `Nc1cc(S(=O)(=O)[O-])cc2cc(S(=O)(=O)[O-])c(N=Nc3ccccc3)c(O)c12.[Na+].[Na+]` [Acid Red 33, diantrium salt of 5-amino-4-hydroxy-3-(phenylazo)-naphthalene-2,7-disulphonate], for which the solubility in water is given as 2.5 g/L.
